Here are results for 1 substance from US9944677B2, “Selective inhibitor of angiotensin II” (GEORGETOWN UNIVERSITY, priority 2013, dated 2018).

Ends that are not written are not given here.

This data set concerns rats. Nature of the data set: Behavioral arousal, locomotion and grooming behavior. The note with it: rat, in vivo.

On to MAGILSG [PEP7, MAGILSG (SEQ ID NO: 1)], for which the “Effect on behavioral arousal, locomotion and grooming behavior” value is “did not have an effect”.
